This is an account of results in US20110053951A1, “METHODS FOR TREATING DISORDERS USING NMDA NR2B-SUBTYPE SELECTIVE ANTAGONIST” (EVOTEC NEUROSCIENCES GMBH, priority 2008, published 2011).

Series [1] relates to healthy volunteers. As to the kind of experiment: Continuous arterial spin labeling (CASL) perfusion MRI of regional cerebral blood flow (rCBF). Type of series: in vivo, human. As to conditions: for increase in rCBF: anterior cingulate cluster. How it is done: (§1) A double blind, placebo controlled study was conducted in 19 healthy volunteers to investigate the role of NMDA receptor NR2B subunit selective antagonism on cognitive functions and neurophysiology as measured with magnetic resonance imaging (MRI). This study utilized functional MRI to determine changes in regional cerebral blood flow (rCBF) and the putative modulation of neural networks during performance of cognitive tasks by the subjects after they were administered the bis HCl salt of compound of formula (I).
The 19 healthy male volunteers who participated in this study were scanned using functional magnetic resonance imaging (fMRI) whilst performing cognitive tasks (including the PAL task described below in more detail) designed to measure associative learning, sustained attention, and episodic memory. These tasks were repeated on three study days two hours prior to the fMRI session. On these three separate occasions, the participants received a capsule containing either placebo (microcrystalline cellulose), 8 mg, or 15 mg of the bis HCl salt of compound of formula (I) such that all treatments were given to all participants. During the fMRI session, the tasks were presented in a randomized order to each subject; however, the order assigned was then maintained across all three study sessions. Additional practice on the tasks was offered to the participants before entering the scanner, and the instructions were repeated prior to each task being performed whilst in the scanner.
Images were acquired on a 1.5T GE Excite HDx system (General Electric, Milwaukee, Wis.). For all tasks a gradient-echo EPI sequence was used with TE=40 ms, FOV=24 cm, and in-plane resolution of 3.75 mm^2 (matrix=64^2). Thirty-eight axial slices with thickness 3 mm (0.3 mm gap) approximately parallel to the AC/PC line were obtained. For the paired associates learning task TR=3000 ms. In addition, a high-resolution image was acquired using single shot EPI with TR=3000 ms, TE=40 ms, FOV=24 cm, 3 mm slice thickness with 0.3 mm gap, matrix=128^2, and 43 slices. This image was used to determine coregistration parameters.
Whole-brain resting perfusion images were acquired with a continuous arterial spin labeling (CASL) sequence consisting of a pseudo-continuous flow-driven, adiabatic inversion scheme and a continuous 3D fast spin echo (FSE) sequence with an interleaved stack of variable density spirals acquisition (Alsop and Detre (1998) Multisection cerebral blood flow MR imaging with continuous arterial spin labeling. Radiology 208: 410-6). CASL perfusion images are able to delineate grey and white matter and provide high resolution quantification of rCBF across the whole brain. Because of the genuine 3-dimensional encoding and readout of this multi-shot technique, and the refocusing of magnetic susceptibility induced signal distortions, the maps of whole brain rCBF obtainable with this technique are of good image quality and exquisite spatial resolution.
For the perfusion images, brain volumes were first normalized into a standard anatomical space (International Consortium on Brain Mapping—ICBM), using affine registration and non-linear transformations. Normalization utilized a single image to which all three CASL sessions were coregistered in order to reduce the likelihood of preprocessing-dependent differences between the drug and placebo session images. All images were spatially smoothed using a Gaussian kernel full-width at half-maximum filter of 6×6×6 mm to improve signal-to-noise ratio and allow for inherent functional and gyral variability across participants.
Image preprocessing and analysis were carried out using Statistical Parametric Mapping software developed by the Functional Imaging Laboratory, UCL, (SPM v5.0, www.fillon.ucl.ac.ulc/spm/)., running under Matlab 7.0.1, and a blood oxygen level dependency (BOLD) was determined. BOLD changes to cognitive tasks represent changes of neuronal activities of respective brain areas.

Series [2] relates to healthy young and elderly subjects. Put plainly: Double-blind, placebo-controlled, single and multiple oral dose safety and tolerability study. The format is in vivo, human. The method, then: A double-blind, placebo-controlled, randomized, single, and multiple oral dose study was conducted in order to determine safety and tolerability of the bis HCl salt of compound of formula (I) in healthy young and elderly subjects. The study was conducted in two parts.
Part 1 comprised an ascending single dose, sequential group study in 48 young male subjects, incorporating a two-period crossover arm to investigate the effect of food. Part 2 comprised an ascending multiple dose, sequential group study in 24 young male subjects and an ascending single and multiple dose, sequential group study in 18 elderly subjects (10 males and 8 females) subjects. On each dosing occasion, the subjects received a single capsule containing the appropriate amount of either the bis HCl salt of compound of formula (I) or microcrystalline cellulose. Treatments were administered orally with 240 ml water while the subjects were in a standing position.
The condition of each subject was monitored throughout the study. In addition, any signs and symptoms were observed and elicited at least once a day by open questioning, such as “How have you been feeling since you were last asked?” Subjects were also encouraged to report spontaneously any adverse events during the study.
Any adverse events or remedial actions were recorded. The nature, time of onset, duration, and severity were documented. Any clinically significant abnormalities found during the course of the study were followed up until they returned to normal or could be clinically explained.
A serious adverse event is defined as any untoward medical occurrence that at any dose either results in death, is life-threatening, requires inpatient hospitalization, or prolongs existing hospitalization, results in persistent or significant disability/incapacity, and/or results in a congenital anomaly/birth defect.
Important medical events that may not result in death, be life-threatening, or require hospitalization may be considered to be serious adverse events when, based upon appropriate medical judgment, they may jeopardize the subject or may require medical or surgical intervention to prevent one of the above-described outcomes.

Series [3] has as its system healthy volunteers. As to the kind of experiment: fMRI (BOLD) during Paired Associates Learning (PAL) task. The format is in vivo, human. The method, then:
as §1
The 19 healthy male volunteers who participated in this study were scanned using functional magnetic resonance imaging (fMRI) whilst performing cognitive tasks (including the PAL task described below in more detail) designed to measure associative learning, sustained attention, and episodic memory. These tasks were repeated on three study days two hours prior to the fMRI session. […]
Image preprocessing and analysis were carried out using Statistical Parametric Mapping software developed by the Functional Imaging Laboratory, UCL, (SPM v5.0, www.fillon.ucl.ac.ulc/spm/)., running under Matlab 7.0.1, and a blood oxygen level dependency (BOLD) was determined. […]

Series [4] has as its target NR2B subtype of the NMDA receptor (Homo sapiens, UniProt Q05586+Q13224). Put plainly: Receptor occupancy estimated by extrapolation from CSF concentrations. Type of series: in vivo. To be noted: daily dose of 8 mg; extrapolated from CSF concentrations; compared with therapeutic dosages of memantine. How it is done:
CSF samples were stored immediately in an upright position at a temperature of −70° C. or below until shipment. Compound of formula (I) concentrations were measured by a specific and validated LC-MS-MS method. […] Such concentrations in the CSF have been extrapolated to estimate the extent of occupancy of the NR2B subtype of the NMDA receptor.

The nature of series [5]: Cerebrospinal fluid (CSF) penetration by lumbar puncture, LC-MS-MS. Type of series: in vivo, human. To be noted: 8 mg daily for 8 days, six healthy subjects, 3 to 4 hours after dosing on day 8. The method, then: One lumbar puncture per subject was performed on day 8 of treatment (daily dose of 8 mg of bis HCl salt of the compound of formula (I)), in the timeframe of 3 to 4 hours after dosing.
All care was taken to avoid contamination of the collected CSF sample with blood. Thus, only clear CSF was collected, after blood-contaminated liquid has left the cannula. Bloody taps were discarded.
Samples were aliquoted per time point for the measurement of compound of formula (I) as follows: a 0.5 ml CSF sample was aliquoted in empty dry polypropylene tubes from the ≈5 ml CSF collected at each scheduled time point.
CSF samples were stored immediately in an upright position at a temperature of −70° C. or below until shipment. Compound of formula (I) concentrations were measured by a specific and validated LC-MS-MS method. Cerebrospinal fluid (CSF) penetration has been assessed in six healthy subjects receiving 8 mg of bis HCl salt of compound of formula (I) daily for 8 days. […] Such concentrations in the CSF have been extrapolated to estimate the extent of occupancy of the NR2B subtype of the NMDA receptor. […] The selectivity of the compound of formula (I) and salts thereof in combination with the good penetration of the blood brain barrier at well-tolerated dosages according to the present invention provides a therapeutic advantage.

Setting [6] is: throughout the study, young and elderly subjects.

Structures are written as SMILES. Counter-ions that a name gives are not always drawn.

NR2B subtype of the NMDA receptor, sequence (Q13224 27-1484, other chains not shown): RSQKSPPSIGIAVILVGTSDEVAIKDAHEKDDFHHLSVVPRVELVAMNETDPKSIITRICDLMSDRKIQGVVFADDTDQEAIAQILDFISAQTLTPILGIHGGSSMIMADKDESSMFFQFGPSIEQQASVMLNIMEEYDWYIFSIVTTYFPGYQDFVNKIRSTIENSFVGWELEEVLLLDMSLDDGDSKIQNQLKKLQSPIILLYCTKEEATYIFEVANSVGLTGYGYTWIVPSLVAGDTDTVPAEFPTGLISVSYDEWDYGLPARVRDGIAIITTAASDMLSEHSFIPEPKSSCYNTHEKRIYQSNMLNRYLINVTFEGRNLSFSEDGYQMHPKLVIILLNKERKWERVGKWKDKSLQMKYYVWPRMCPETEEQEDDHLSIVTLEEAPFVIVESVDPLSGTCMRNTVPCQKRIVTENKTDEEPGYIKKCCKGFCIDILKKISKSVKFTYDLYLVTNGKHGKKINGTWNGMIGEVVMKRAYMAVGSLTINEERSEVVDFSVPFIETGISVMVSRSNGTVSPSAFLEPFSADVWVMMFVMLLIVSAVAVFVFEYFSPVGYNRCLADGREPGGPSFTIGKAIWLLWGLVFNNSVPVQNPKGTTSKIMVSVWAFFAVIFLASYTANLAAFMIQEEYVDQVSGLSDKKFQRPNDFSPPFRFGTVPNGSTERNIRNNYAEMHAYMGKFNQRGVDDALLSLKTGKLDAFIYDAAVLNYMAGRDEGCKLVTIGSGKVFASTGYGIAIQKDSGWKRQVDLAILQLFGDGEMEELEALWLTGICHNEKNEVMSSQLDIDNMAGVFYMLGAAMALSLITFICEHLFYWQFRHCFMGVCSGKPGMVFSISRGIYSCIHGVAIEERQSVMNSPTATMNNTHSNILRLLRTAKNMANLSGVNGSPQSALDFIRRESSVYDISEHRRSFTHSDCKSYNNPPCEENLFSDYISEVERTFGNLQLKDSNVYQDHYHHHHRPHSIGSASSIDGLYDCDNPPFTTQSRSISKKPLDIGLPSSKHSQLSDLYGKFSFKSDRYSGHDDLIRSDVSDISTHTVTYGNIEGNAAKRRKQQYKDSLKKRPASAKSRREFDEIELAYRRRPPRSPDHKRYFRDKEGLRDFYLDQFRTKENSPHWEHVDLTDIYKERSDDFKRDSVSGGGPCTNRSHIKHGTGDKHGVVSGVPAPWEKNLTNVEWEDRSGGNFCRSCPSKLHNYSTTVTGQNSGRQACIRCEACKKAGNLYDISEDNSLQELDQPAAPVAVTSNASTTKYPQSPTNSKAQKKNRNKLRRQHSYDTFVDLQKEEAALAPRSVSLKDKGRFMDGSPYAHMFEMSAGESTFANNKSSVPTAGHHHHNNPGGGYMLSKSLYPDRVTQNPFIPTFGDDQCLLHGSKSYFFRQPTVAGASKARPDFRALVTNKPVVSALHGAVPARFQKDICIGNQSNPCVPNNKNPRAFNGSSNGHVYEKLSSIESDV

Turning to `Cc1nccn1Cc1cc(-c2ccc(F)c(C(F)F)c2)cnn1` [bis HCl salt of compound of formula (I), 5-(3-difluoromethyl-4-fluoro-phenyl)-3-(2-methyl-imidazol-1-yl-methyl)-pyridazine], in series [1] (8 mg and 15 mg oral), the “decreases in rCBF” value is on record as “no clusters of voxels showing significant decreases in rCBF”. The “areas of increased/decreased perfusion” value in series [1] (8 mg oral vs placebo) is recorded as “No statistically significant changes”. Besides, the “increase in rCBF” value in series [1] (8 mg oral) is 17.5%; in series [1] (15 mg oral), 17.9%. Besides, the “rCBF, direct comparison with placebo” value in series [1] (15 mg oral, anterior cingulate) is “highly significant cluster of increased rCBF”. For the same compound, the “rCBF normalized to global signal, main effect of drug” value in series [1] (averaged over 8 mg and 15 mg vs placebo, genu of the anterior cingulate cortex) is recorded as “increased signal”. The “dose response relationship of perfusion between 8 mg and 15 mg” value in series [1] (formal comparison across the entire brain volume, ignoring placebo) is reported as “No changes were seen”. Further, the “global perfusion (whole brain)” value in series [1] (placebo, 8 mg and 15 mg oral, CASL perfusion maps) is recorded as “no difference across the three conditions studied”. Moreover, the “regional effects on absolute perfusion” value in series [1] (placebo, 8 mg and 15 mg, threshold p=0.05 corrected across whole brain) is “no significant clusters where signal differed”. Moreover, the tolerability result is “very well tolerated” in series [2] (elderly males and females, multiple oral doses (over 8 days) of up to 3 mg twice daily); “very well tolerated” in series [2] (elderly males and females, single oral doses of up to 4 mg); “very well tolerated” in series [2] (young males, multiple oral doses (over 8 days) of up to 8 mg once daily); “very well tolerated” in series [2] (young males, single oral doses of up to 15 mg (including 2, 5 and 10 mg)). For the same compound, in series [2] (following single or multiple dosing in young or elderly subjects), the “vital signs and electrocardiogram (ECG) parameters” value was “no apparent trends”. The “incidence of adverse events” value in series [2] (setting [6]) was “low incidence of mainly mild adverse events”. Also, the “serious or severe adverse events” value in series [2] (setting [6]) was “no serious or severe adverse events”. Also, in series [3] (8 mg and 15 mg oral, healthy young subjects), the “functional performance of subjects in PAL” value is reported as “unaffected”. Moreover, in series [3] (placebo, 8 mg, 15 mg oral, PAL task, preliminary analysis), the “BOLD signal during retrieval in memory retrieval network” value is given as “dose dependent increases in BOLD signal”.

As to `Cc1nccn1Cc1cc(-c2ccc(F)c(C(F)F)c2)cnn1` [compound of formula (I), 5-(3-difluoromethyl-4-fluoro-phenyl)-3-(2-methyl-imidazol-1-yl-methyl)-pyridazine], the receptor occupancy entry in series [4] is recorded as “greater than that, which corresponds to currently used therapeutic dosages of memantine”. The “CSF concentration relative to plasma concentration” value in series [5] is given as “largely corresponds to the free (unbound) plasma concentrations”.
